Source: paper PMC3588188, “Interactions between Human Liver Fatty Acid Binding Protein and Peroxisome Proliferator Activated Receptor Selective Drugs” (PPAR Research, 2013)
Where two headings read alike, the source gives them in different places.

Assays:
human L-FABP [1] = molecular target: T1, human L-FABP (Homo sapiens, UniProt P07148); experiment: Fluorescent binding cavity probe binding to L-FABP
T1 sequence (P07148 1-127): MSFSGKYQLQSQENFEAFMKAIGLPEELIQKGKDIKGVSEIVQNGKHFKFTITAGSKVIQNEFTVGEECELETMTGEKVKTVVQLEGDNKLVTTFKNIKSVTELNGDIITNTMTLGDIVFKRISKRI

human L-FABP [2] = molecular target: T1, human L-FABP; experiment: ANS fluorescence displacement assay with L-FABP
human L-FABP [3] = molecular target: T1, human L-FABP; experiment: cis-parinaric acid fluorescence displacement assay with L-FABP; settings: for displacement of cis-parinaric acid fluorescence from L-FABP: extent of probe displacement by drug titration
PPARαLBD = molecular target: T2, PPARαLBD (Homo sapiens, UniProt Q07869); experiment: PPARαLBD protection from limited proteolysis (western blot); settings: PPARαLBD 30 μM, drug 0, 1, 5 μM, trypsin 30 min at 20°C
T2 construct: LBD of human PPARα (aa 196–468); [His]6 (N); made in house; host or cells: E. coli BL21 Codon Plus (DE3)-RIL (plasmid from Krister Bamberg, Astra-Zeneca)
T2 sequence (Q07869 196-468): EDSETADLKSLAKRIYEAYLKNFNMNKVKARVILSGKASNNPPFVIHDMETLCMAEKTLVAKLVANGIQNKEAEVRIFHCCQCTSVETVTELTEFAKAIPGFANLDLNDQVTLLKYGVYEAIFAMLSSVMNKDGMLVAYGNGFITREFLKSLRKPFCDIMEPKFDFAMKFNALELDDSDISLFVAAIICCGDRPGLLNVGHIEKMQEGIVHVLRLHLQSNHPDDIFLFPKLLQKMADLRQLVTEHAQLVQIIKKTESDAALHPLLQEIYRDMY
Excerpt: […] […] The reaction was quenched by the addition of PMSF and one volume of SDS-PAGE sample buffer as detailed above. Samples were resolved by 15% resolving SDS-PAGE polyacrylamide gels then transferred to a PVDF membrane and probed with anti-human PPARα antibody (mapping to C-terminal aa 420–468 of the PPARαLBD; cat. no. sc1982 Santa-Cruz Biotechnology, Santa Cruz, CA, USA) by western blotting.

human L-FABP [4] = molecular target: T1, human L-FABP; experiment: Limited proteolysis of L-FABP with trypsin; design: [His]6 (N); made in house; host or cells: E. coli BL21 Codon Plus (DE3)-RIL; settings: drug 0-5 μM, L-FABP 50 μM, 1 hr at 20°C
Description: The limited proteolysis of L-FABP (50 μM) with sequencing grade trypsin was carried out in buffer D (20 mM Tris-HCl, pH 8.0; 50 mM NaCl; […]. Apo- or holo-drug (0, 0.1, 0.4, 1.0, 5 μM final drug concentration) protein samples were equilibrated with the drug at 20°C for 15 min before protease was added. Digestion reactions were stopped by the addition of 5 μL of 50 mM phenylmethanesulfonyl fluoride (PMSF) followed by one volume of SDS-PAGE sample buffer (12.5% 0.5 M Tris-HCl pH 6.8; 0.005% bromophenol blue; 10% SDS; 10% glycerol; 2% β-mercaptoethanol) and heated for 2 min at 100°C. Samples were resolved on 4% stacking, 20% resolving polyacrylamide gels at 4°C at a constant voltage of 80 V, using the Laemmli buffer system. Gels were stained with Coomassie Blue G-250 and destained with 50% methanol/10% acetic acid (v/v) solution. Gels were dried between cellulose sheets and scanned at 1200 dpi. Protein bands were quantified densitometrically using LabImage 1D gel analysis software V3.4 (Kapelan GmbH, http://www.kapelan-bioimaging.com/).

human L-FABP [5] = molecular target: T1, human L-FABP; experiment: Differential scanning calorimetry of L-FABP; design: [His]6 (N); made in house; host or cells: E. coli BL21 Codon Plus (DE3)-RIL; settings: holo-drug L-FABP; apo L-FABP Tm = 80.1; scan rate 0.5°C/min
Description: DSC measurements were performed on N-DSC II calorimeter (Calorimetry Sciences Corporation, UT, USA) at a heating rate of 0.5°C/min. For preparation of 250 μM protein sample solutions, L-FABP was extensively buffer exchanged into buffer E (20 mM Tris-HCl pH 8.0) by ultrafiltration using Amicon Ultra 3 K centrifugal concentrators and degassed prior to filling the calorimeter cells. The filtrate from the sample preparation was used as a reference buffer for the DSC measurements. The thermal transition mid-point temperatures (T m) were calculated using CpCalc software (Calorimetry Sciences Corporation, UT, USA).

[6] = molecular target: T3, human PPARα LBD (aa 196–468) (Homo sapiens, UniProt Q07869); experiment: cis-parinaric acid fluorescence displacement assay with PPARα LBD; settings: cis-parinaric acid (2 μM) displacement, LBD 1 μM; nd = no binding detected; read-out: Ki, PPARαLBD
T3 construct: LBD of human PPARα (aa 196–468); [His]6 (N); made in house; host or cells: E. coli BL21 Codon Plus (DE3)-RIL (plasmid from Krister Bamberg, Astra-Zeneca)
T3 sequence (Q07869 196-468): T2 sequence (Q07869 196-468)
Description: (§1) Proteins were resolved using a step gradient of 0–300 mM imidazole in buffer A (50 mM Tris-HCl, pH 8.0; 500 mM NaCl; 0.5 mM ethylenediaminetetraacetic acid (EDTA); 1 mM dithiothreitol (DTT); 5% (v/v) glycerol) at a flow rate of 5 mL/min (4 column volumes (CVs) washout unbound sample; 0%–30% imidazole over 5 CVs; hold 30% for 2 CVs; 30%–100% imidazole over 5 CVs; hold 100% for 3 CVs).

[7] = molecular target: T4, human PPARδ LBD (aa 171–441) (Homo sapiens, UniProt Q03181); experiment: cis-parinaric acid fluorescence displacement assay with PPARδ LBD; settings: cis-parinaric acid (2 μM) displacement, LBD 1 μM; nd = no binding detected; read-out: Ki, PPARδLBD
T4 construct: human PPARδ (aa 171–441); [His]6 (N); made in house; host or cells: E. coli BL21 Codon Plus (DE3)-RIL (plasmid from William Hunter, University of Dundee)
T4 sequence (Q03181 171-441): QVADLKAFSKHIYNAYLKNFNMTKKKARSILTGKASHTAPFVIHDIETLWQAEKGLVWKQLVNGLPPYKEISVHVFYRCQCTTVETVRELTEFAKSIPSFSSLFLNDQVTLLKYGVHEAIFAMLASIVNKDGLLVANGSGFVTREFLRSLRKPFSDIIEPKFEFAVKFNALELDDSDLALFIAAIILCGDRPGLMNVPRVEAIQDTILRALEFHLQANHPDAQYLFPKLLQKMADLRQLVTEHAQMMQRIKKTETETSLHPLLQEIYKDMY
Description: as §1

[8] = molecular target: T5, human PPARγ LBD (aa 193–475) (Homo sapiens, UniProt P37231); experiment: cis-parinaric acid fluorescence displacement assay with PPARγ LBD; type: binding
T5 construct: human PPARγ (aa 193–475); [His]6 (N); made in house; host or cells: E. coli BL21 Codon Plus (DE3)-RIL (plasmid from Krister Bamberg, Astra-Zeneca)
T5 sequence (P37231 193-475 isoform P37231-2): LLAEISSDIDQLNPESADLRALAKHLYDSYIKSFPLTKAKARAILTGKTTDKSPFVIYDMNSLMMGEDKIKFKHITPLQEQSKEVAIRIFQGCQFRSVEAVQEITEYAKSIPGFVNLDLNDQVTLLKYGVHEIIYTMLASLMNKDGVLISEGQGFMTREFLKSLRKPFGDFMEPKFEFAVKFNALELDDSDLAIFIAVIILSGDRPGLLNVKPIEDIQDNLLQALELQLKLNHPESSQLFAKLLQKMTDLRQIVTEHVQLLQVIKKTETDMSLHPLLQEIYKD
Description: as §1

[9] = cis-parinaric acid (2 μM) displacement, LBD 1 μM, nd = no binding detected, read-out: Ki, PPARγLBD

Compound	Ki (human L-FABP [2])	Ki [6]	Ki [7]	further results
O=S(=O)(O)c1cccc2cccc(Nc3ccccc3)c12				Kd (human L-FABP [1]): 6 ± 2.6 µM
Cc1c(C)c2c(c(C)c1O)CCC(C)(COc1ccc(CC3SC(=O)NC3=O)cc1)O2 (centres unmarked) [Troglitazone]	1.7 ± 0.5 µM			
CC(C)(Oc1ccc(C(=O)c2ccc(Cl)cc2)cc1)C(=O)O [Fenofibric acid]	1 ± 0.2 µM	10 ± 3 µM	49 ± 4 µM	
CN(CCOc1ccc(CC2SC(=O)NC2=O)cc1)c1ccccn1 (centres unmarked) [Rosiglitazone]	2.8 ± 1.1 µM			
CCCc1c(OCCCOc2ccc(OCC(=O)O)cc2)ccc(C(C)=O)c1O [L-165,041]	1.4 ± 0.6 µM	4.2 ± 0.4 µM	0.8 ± 0.3 µM	Ki (human L-FABP [3]): 2.3 µM; displacement of cis-parinaric acid fluorescence from L-FABP (human L-FABP [3]): could not completely displace the cis-parinaric acid fluorescence; protection of L-FABP from limited proteolysis (human L-FABP [4]): protects L-FABP from limited proteolysis; Ki [8, 9]: 12 ± 2.1 µM
CCCCCCCC/C=C\CCCCCCCC(=O)O [Oleate]		0.21 ± 0.08 µM	1.1 ± 0.26 µM	Ki [8]: 0.6 ± 0.015 µM

More lines, main results first:

Ki (human L-FABP [2])	Ki [6]	Ki [7]	Compound	further results
0.32 ± 0.13 µM			CC(C)(Sc1ccc(CCN(CCCCC2CCCCC2)C(=O)NC2CCCCC2)cc1)C(=O)O [GW7647]	Ki (human L-FABP [3]): 0.55 µM; displacement of cis-parinaric acid fluorescence from L-FABP (human L-FABP [3]): could not completely displace the cis-parinaric acid fluorescence; protection of PPARαLBD from limited proteolysis (PPARαLBD): afforded protection to the PPARαLBD against proteolysis; protection of L-FABP from limited proteolysis (human L-FABP [4]): afforded more resistance to proteolysis; thermal transition mid-point temperature (Tm) of L-FABP in complex with drug (human L-FABP [5]): 86.7 °C
1.6 ± 0.7 µM			CN(CCOc1ccc(C[C@H](Nc2ccccc2C(=O)c2ccccc2)C(=O)O)cc1)c1ccccn1 [GW1929]	
20 ± 3.8 µM		23 ± 4 µM	Cc1nc(-c2ccc(C(F)(F)F)cc2)sc1C(=O)NCc1ccc(OC(C)(C)C(=O)O)cc1 [GW590735]	Ki [8, 9]: 4.4 ± 2.3 µM
